Patent publication US5279935A, “Method of immunossay including deactivation of endogenous alkaline phosphatase” (Becton, Dickinson and Company, priority 1990, dated 1994)
Where two headings read alike, the source gives them in different places.

Columns and labels:
[1] = biological target: E. coli AP (Escherichia coli, UniProt P00634); assay type: biochemical
[2] = test system: endogenous AP in uninfected MDCK cells; design: species or system canine
[3] = 4.8 units/test of E. coli AP spike, no antigen, acid wash 0.15M
[4] = 600 ng uninfected MDCK cells, acid wash 0.15M
[5] = 4.8 units/test of E. coli AP spike

Sequence of E. coli AP (P00634 22-471): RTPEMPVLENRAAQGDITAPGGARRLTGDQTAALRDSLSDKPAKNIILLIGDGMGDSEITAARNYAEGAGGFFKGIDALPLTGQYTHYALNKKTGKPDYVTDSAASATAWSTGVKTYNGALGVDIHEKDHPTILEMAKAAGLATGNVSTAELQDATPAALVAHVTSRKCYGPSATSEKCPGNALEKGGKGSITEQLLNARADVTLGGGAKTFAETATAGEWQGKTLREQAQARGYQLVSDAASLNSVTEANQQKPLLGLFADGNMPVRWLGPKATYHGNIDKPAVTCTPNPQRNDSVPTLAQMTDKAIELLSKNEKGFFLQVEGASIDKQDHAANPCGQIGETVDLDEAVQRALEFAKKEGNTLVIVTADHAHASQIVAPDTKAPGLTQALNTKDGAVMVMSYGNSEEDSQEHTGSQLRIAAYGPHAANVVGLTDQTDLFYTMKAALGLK

In the case of `CC(O)C(=O)O` (stereo not drawn) [F, lactic acid], the reflectance [1, 3] is reported as “.06”, the visual [1, 3] is reported as “(+)” and the “Reflectance (arbitrary units)” value [2, 4] is reported as “.12 arbitrary units”.
`O=C(O)C(O)C(O)C(=O)O` (stereo not drawn) [C, tartaric acid] was tested, and the “reduction of signal due to the AP spike in comparison to the control (no acid)” value [1, 5] was “most effective”, the reflectance [1, 3] was “.04” and the “Reflectance (arbitrary units)” value [2, 4] was “.10 arbitrary units”.
With `O=C(O)CCCC(=O)O` [B, glutaric acid] the reflectance [1, 3] was “.06”, the visual [1, 3] was “(+)” and the “Reflectance (arbitrary units)” value [2, 4] was “.10 arbitrary units”.
With `O=C(O)CC(O)(CC(=O)O)C(=O)O` [A, citric acid] the “reduction of signal due to the AP spike in comparison to the control (no acid)” value [1, 5] was “most effective”, the reflectance [1, 3] was “.03” and the “Reflectance (arbitrary units)” value [2, 4] was “.12 arbitrary units”.
With `O=C(O)CCC(=O)O` [D, succinic acid] the reflectance [1] was “.06”, the visual [1] was “(+)” and the “Reflectance (arbitrary units)” value [2] was “.10 arbitrary units”.
In the case of `O=C(O)CC(O)C(=O)O` (stereo not drawn) [E, malic acid], the reflectance [1, 3] is reported as “.06”, the visual [1, 3] is reported as “(+)” and the “Reflectance (arbitrary units)” value [2, 4] is reported as “.12 arbitrary units”.
